Data set [1] can be described thus: Measurement of partition coefficient based on the octanol extraction method. Type of data set: physicochemical. The settings on record: water saturated 1-octanol / 1-octanol saturated water, 20 to 25±2° C. Here is the method:
Water saturated 1-octanol and 1-octanol saturated water were added to the equilibrated vessel each in an amount of 200 μL, 400 μL or 800 μL. The equilibrated vessel was subjected to stirring, and then was shaken for 5 minutes (20 to 25±2° C., 20 rpm). […] Using the obtained count, log Poctanol was calculated in accordance with the following equation (1).

For data set [2], the target named is amyloid aggregates in the brain of AD patients (Homo sapiens, UniProt P05067). The experiment in a line: Binding assay using brain gray matter homogenate of AD patients (Kd, Bmax). The settings on record: mixed solution of Compound 1 and Compound 3, 0.2 to 25 nmol/L; brain gray matter homogenate (frontal lobe) of AD patients; 22° C., 3 hours. The procedure:
Calculation of Dissociation Constant (Hereinafter, Referred to as Kd) and Maximum Binding Amount (Hereinafter, Referred to as Bmax) Resulting from Binding Assay Using Brain Tissue of Patients of Alzheimer's Disease (Hereinafter, Referred to as AD)
The assay was conducted using a brain gray matter homogenate of AD patients, which was prepared from a brain tissue (Frontal lobe) of AD patients commercially available from Analytical Biological Services Inc. (United States).
A mixed solution of Compound 1 (about 35 kBq/100 μL) and Compound 3 (62.5 nmol/L) was diluted with a 0.1% bovin serum albumin (hereinafter referred to as BSA)-containing 5 mmol/L phosphate buffer saline solution, and prepared to have a concentration of 0.2 nmol/L to 25 nmol/L in the reaction solution. To each well of a 96-well microplate, 100 μL of a 0.1% BSA-containing 5 mmol/L phosphate buffer saline solution and 100 μL of the prepared mixed solution of Compound 1 and Compound 3 were added. […] The filter after filtration was washed with a 0.1% BSA-containing 5 mmol/L phosphate buffer saline solution (200 μL×3 times), and then radioactivity remaining in the filter was measured with an Autowell Gamma system (type: ARC-7001, manufactured by Aloka). […] The resulting count was analyzed with GraphPad Prism Ver. 5 (manufactured by GraphPad Software, Inc.), and binding parameter (Kd, Bmax) was calculated.

Data set [3] can be described thus: Measurement of transferability into brain and clearance. The following applies: rats, intravenous injection; for Radioactive accumulation per unit weight, After 2 min. / Radioactive accumulation per unit weight, After 5 min. / Radioactive accumulation per unit weight, After 15 min. / Radioactive accumulation per unit weight, After 30 min. / Radioactive accumulation per unit weight, After 60 min.: brain; for Radioactive accumulation per unit weight, After 2 min.: 2 min after injection; for Radioactive accumulation per unit weight, After 5 min.: 5 min after injection; for Radioactive accumulation per unit weight, After 15 min.: 15 min after injection; for Radioactive accumulation per unit weight, After 30 min.: 30 min after injection; for Radioactive accumulation per unit weight, After 60 min.: 60 min after injection; for transferability to brain and clearance from brain (in words): 2 to 60 min. It counts as in vivo, male Wistar rats. Here is the method: The sample solution was injected under non-anesthesia into the tail vein of male Wistar rats (8-week old) (dosage: 0.2 mL, dosed radioactivity: 7.4 MBq equivalent). The rats were sacrificed by decapitating under non-anesthesia to sample bloods and brains 2, 5, 15, 30 and 60 minutes after the injection. Brains were subjected to measurement of mass of brains and further subjected to measurement of radioactivity (hereinafter referred to as A in this Example) with a single channel analyzer (detector type SP-20 manufactured by OHYO KOKEN KOGYO Co., Ltd.). Further, the radioactivity level of the rest of the whole body including blood was measured in the same manner as above (hereinafter referred to as B in this Example). Using these measurement results, the amount of radioactive accumulation per unit weight of brain (% ID/g) at the respective time points were calculated in accordance with the following formula (2).
Separately, a solution of [^123I]-IMPY dissolved in a physiological saline solution containing 50 mmol/L of L-cysteine hydrochloride (radioactive concentration: 37 MBq/mL) was prepared. The same procedure as above was carried out to calculate the amount of radioactive accumulation per unit weight of brain (% ID/g) at the respective time points.
Meanwhile, in this Example, three animals were used for the experiment at the respective time points.

In data set [4] the test system is site of amyloid deposition in brain slice of AD patients. The experiment in a line: Confirmation of compound avidity for brain slice of AD patients by autoradiography. Type of data set: binding, human. The following applies: 5 μm brain slice of AD patients, 10 kBq/mL, 30 minutes, room temperature; amyloid deposition confirmed by immunostaining. Here is the method: The following experiment was carried out in order to examine whether amyloid in brain of AD patients can be imaged by the compound of the present invention. • (1) A 5 μm-thick brain slice of AD patients was prepared from a brain tissue of AD patients available from Analytical Biological Services Inc. (United States). • (2) The brain slice was immersed in PBS for 15 minutes, 5 minutes and 5 minutes each. […] Then, it was immersed in a 1% BSA-containing PBS solution, a PBS solution and a PBS solution each for 5 minutes to wash the brain slice. The washed brain slice was sufficiently dried, and then exposed to an imaging plate for 16 hours, and then autoradiogram image analysis was carried out by use of a Bio-imaging Analyzer (type: BAS-2500; manufactured by FUJIFILM Corporation) (FIG. 3, FIG. 4, FIG. 5). • (3) Immunostaining at a site of amyloid deposition with an anti-amyloid antibody was carried out using adjacent slices. Anti-Human Amyloidβ (N) (82E1) Mouse IgG MoAb (Immuno-Biological Laboratories Co., Ltd.) was used as the anti-amyloid antibody, and Anti-Mouse IgG (H+L) Goat IgG Fab′-HRP (Immuno-Biological Laboratories Co., Ltd.) was used as a secondary antibody. […] Results

amyloid aggregates in the brain of AD patients, sequence (P05067 672-713): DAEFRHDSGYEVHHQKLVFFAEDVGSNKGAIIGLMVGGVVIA

On to `[123I]c1ccc2nc(-c3ccc(-n4ccnn4)cc3)cn2c1` [Compound 1, [^123I]-6-iodo-2-[4-(1H-1,2,3,-triazole-1-yl)phenyl]imidazo[1,2-a]pyridine], for which the logP at 5 min in data set [1] (1-octanol/water, read-out: logPoctanol value) was 1.98. Besides, the logPoctanol value in data set [1] came to 1.98. The Bmax in data set [2] came to 2242 fmol/mg protein. In addition, in data set [3], the “Radioactive accumulation per unit weight, After 2 min.” value was found to be 1.085 % ID/g; the “Radioactive accumulation per unit weight, After 5 min.” value was found to be 0.701 % ID/g; the “Radioactive accumulation per unit weight, After 15 min.” value is reported as 0.260 % ID/g; the “Radioactive accumulation per unit weight, After 30 min.” value was 0.100 % ID/g. In data set [3], the “Radioactive accumulation per unit weight, After 60 min.” value is reported as 0.034 % ID/g; the “transferability to brain and clearance from brain (in words)” value was “excellent transferability to brain and rapid clearance from brain”. The “binding to the site of amyloid deposition on autoradiogram” value (“binding to the site” below) in data set [4] is “confirmed”.
For `CN(C)c1ccc(-c2cn3cc(I)ccc3n2)cc1` [[^123I]-IMPY, 6-iodo-2-[4′-(N,N-dimethylamino)phenyl]imidazo[1,2-a]pyridine, reference compound], in data set [3], the “Radioactive accumulation per unit weight, After 2 min.” value is listed as 1.644 % ID/g; the “Radioactive accumulation per unit weight, After 5 min.” value amounted to 1.192 % ID/g; the “Radioactive accumulation per unit weight, After 15 min.” value is reported as 0.554 % ID/g; the “Radioactive accumulation per unit weight, After 30 min.” value was determined as 0.225 % ID/g. Moreover, the “Radioactive accumulation per unit weight, After 60 min.” value in data set [3] is given as 0.085 % ID/g. The “binding to the site” value in data set [4] was “confirmed”.
“[^123I]-6-iodo-2-[4-(1H-pyrrole-1-yl)phenyl]imidazo[1,2-a]pyridine [Compound 2]”: in data set [3], the “Radioactive accumulation per unit weight, After 2 min.” value is 1.201 % ID/g; the “Radioactive accumulation per unit weight, After 5 min.” value is on record as 1.065 % ID/g; the “Radioactive accumulation per unit weight, After 15 min.” value was determined as 0.745 % ID/g; the “Radioactive accumulation per unit weight, After 30 min.” value was 0.349 % ID/g. Moreover, in data set [3], the “Radioactive accumulation per unit weight, After 60 min.” value came out at 0.113 % ID/g; the “transferability to brain and clearance from brain (in words)” value is “excellent transferability to brain and rapid clearance from brain”. In addition, the “binding to the site” value in data set [4] is recorded as “confirmed”.

These data come from patent US9149546B2, “Compound having affinity for amyloid” (NIHON MEDI-PHYSICS CO., LTD., priority 2011, dated 2015).
